Laboratory results as given in patent publication US10570116B2, “1,4-dicarbonyl-piperidyl derivatives” (Merck Patent GmbH, priority 2015, dated 2020).

Experiments:
[1] = molecular target: TNKS1 (Homo sapiens (Human), UniProt O95271); assay: biochemical; type: biochemical; conditions: GST-tagged Tnks-1 (1023-1327 aa); read-out: IC50 [M] TNKS1 ELISA
[2] = molecular target: TNKS2 (Homo sapiens (Human), UniProt Q9H2K2); assay: biochemical; type: biochemical; conditions: GST-tagged Tnks-2 (873-1166 aa); read-out: IC50 [M] TNKS2 ELISA
[3] = system: Tankyrases; assay: Measurement of cellular inhibition of Tankyrase (Axin2 level, Luminex based assay, DLD1 cells); type: cell-based; conditions: increase of Axin2 level, 24 hours, read-out: EC50 [M] TNKS cellular assay
[4] = molecular target: PARP-1 (Homo sapiens (Human), UniProt P09874); assay: Biochemical activity testing of PARP-1: autoparsylation assay (HTRF); conditions: His-tagged Parp-1, autoparsylation HTRF
Chain of PARP-1 (P09874 whole entry): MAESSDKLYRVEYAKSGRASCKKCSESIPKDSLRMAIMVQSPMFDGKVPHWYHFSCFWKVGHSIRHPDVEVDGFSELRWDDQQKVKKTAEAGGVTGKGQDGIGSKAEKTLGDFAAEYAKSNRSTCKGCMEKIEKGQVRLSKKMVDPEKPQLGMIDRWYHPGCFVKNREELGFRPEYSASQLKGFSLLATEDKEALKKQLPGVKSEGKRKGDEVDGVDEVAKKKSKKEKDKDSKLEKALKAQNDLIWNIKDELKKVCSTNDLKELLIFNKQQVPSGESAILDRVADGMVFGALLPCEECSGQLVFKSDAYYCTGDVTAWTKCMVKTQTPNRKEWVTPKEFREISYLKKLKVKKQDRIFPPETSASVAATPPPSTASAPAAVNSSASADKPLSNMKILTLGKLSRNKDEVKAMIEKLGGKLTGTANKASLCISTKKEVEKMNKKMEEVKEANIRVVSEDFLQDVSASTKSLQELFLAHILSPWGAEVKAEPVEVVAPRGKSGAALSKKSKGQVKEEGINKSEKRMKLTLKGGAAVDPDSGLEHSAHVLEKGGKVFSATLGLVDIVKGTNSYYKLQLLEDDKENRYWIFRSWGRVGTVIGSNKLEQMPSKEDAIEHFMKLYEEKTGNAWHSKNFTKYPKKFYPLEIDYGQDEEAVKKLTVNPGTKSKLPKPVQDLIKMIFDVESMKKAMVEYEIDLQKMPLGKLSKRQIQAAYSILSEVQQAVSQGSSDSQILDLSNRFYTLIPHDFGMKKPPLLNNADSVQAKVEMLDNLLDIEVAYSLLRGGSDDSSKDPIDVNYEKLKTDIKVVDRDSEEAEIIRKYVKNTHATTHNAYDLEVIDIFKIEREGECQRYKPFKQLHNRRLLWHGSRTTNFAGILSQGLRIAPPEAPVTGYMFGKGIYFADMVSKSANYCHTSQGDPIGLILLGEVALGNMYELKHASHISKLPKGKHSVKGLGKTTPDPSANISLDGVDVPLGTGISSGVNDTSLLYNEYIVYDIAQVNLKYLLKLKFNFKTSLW

[5] = system: DLD-1-cancer cells; conditions: Huang et al., 2009; cited from earlier work
[6] = molecular target: Tankyrase; conditions: prior art value; read-out: cellular assay: EC50; cited from earlier work

| Structure (SMILES) | IC50 [1] | IC50 [2] | EC50 [3] | IC50 [4] | growth of DLD-1-cancer cells [5] | EC50 [6] |
| --- | --- | --- | --- | --- | --- | --- |
| Cn1cc(C(=O)C2CCN(C(=O)CC(C)(C)Cc3nc4c(cnn4C)c(=O)[nH]3)CC2)cn1 [Compound C20, 6-{2,2-Dimethyl-4-[4-(1-methyl-1H-pyrazole-4-carbonyl)-piperidin-1-yl]-4-oxo-butyl}-1-methyl-1,5-dihydro-pyrazolo[3,4-d]pyrimidin-4-one] | 9.2e-10 M | 7.3e-10 M | 1.9e-08 M | > 30000 nM |  |  |
| COc1ccc(C(=O)C2CCN(C(=O)CC(C)(C)Cc3nc4c(cnn4C)c(=O)[nH]3)CC2)cn1 [Compound C21, 6-{4-[4-(6-Methoxy-pyridine-3-carbonyl)-piperidin-1-yl]-2,2-dimethyl-4-oxo-butyl}-1-methyl-1,5-dihydro-pyrazolo[3,4-d]pyrimidin-4-one] | 3.6e-09 M | 2.1e-09 M | 1.6e-08 M | > 30000 nM |  |  |
| COc1ncc(C(=O)C2CCN(C(=O)CC(C)(C)Cc3nc4c(cnn4C)c(=O)[nH]3)CC2)cc1C [Compound C22, 6-{4-[4-(6-Methoxy-5-methyl-pyridine-3-carbonyl)-piperidin-1-yl]-2,2-dimethyl-4-oxo-butyl}-1-methyl-1,5-dihydro-pyrazolo[3,4-d]pyrimidin-4-one] | 2.2e-09 M | 1.8e-09 M | 7.9e-09 M | > 30000 nM |  |  |
| Oc1nc(-c2ccc(C(F)(F)F)cc2)nc2c1CSCC2 [XAV939] |  |  |  |  | inhibits growth |  |
| COc1ccc(C(=O)C2CCN(CC(=O)N(Cc3nc4c(c(=O)[nH]3)COCC4)CC3CC3)CC2)cc1 [benzoylpiperidine derivative] |  |  |  |  |  | 35 nM |
